Patent publication US6228877A, “Substituted pyrroles” (Hoffmann-La Roche Inc., priority 1998, dated 2001)

Test system: epithelial breast carcinoma cell line (MDAMB-435)
Experiment: effect of compounds on growth of epithelial breast carcinoma cell line MDAMB-435 (MTT, 5 days)
Assay type: cell-based
Conditions: Homo sapiens, MDA-MB-435, 120 h, MDAMB-435 cells, 5 days post drug addition, 0.1% DMSO
Experimental: The epithelial breast carcinoma cell line (MDAMB-435) was purchased from ATCC (American Type Cell Culture Collection) and was grown in culture in medium as recommended by ATCC. For analysis of the effect of various compounds on growth of these cells, the cells were plated at a concentration of 1500 cells/well in a 96 well tissue culture plate ("test plate). The day after the cells were plated, the compounds to be analyzed were dissolved in 100% DMSO (dimethyl sulfoxide) to yield at 10 mM stock solution. Each compound was diluted in H2 O to 1 mM and was added to triplicate wells in the first row of a 96 well master plate which contains medium to yield a final concentration of 40 μM. The compounds were then serially diluted in medium in the "master plate". The diluted compound(s) were then transferred to test plates containing cells. A row of vehicle "control cells" received DMSO. The final concentration of DMSO in each well was 0.1%. 5 days post drug addition, the plate was analyzed as follows:
MTT (3-(4-5 methyl thiazole-2-yl)-2,5-diphenyl tetrazolium bromide; thiazolyl blue) was added to each well to yield a final concentration of 1 mg/ml. The plate was then incubated at 37° C. for 21/2-3 hours. The MTT containing medium was then removed and 50 μl of 100% ethanol was added to each well to dissolve the formazan. The absorbences were then read using an automated plate reader (Bio-tek microplate reader).
IC50 's were calculated using the Reed and Munsch equation, see Am. J. Hygiene Vol. 27 pgs. 493-497, 1938.

SMILES	IC50
COc1ccc2c(C3=C(c4cn(C)c5cccc(OC)c45)C(=O)NC3=O)cn(C)c2c1 [CH3 O H H CH3 O, 3-(6-Methoxy-1-methyl-1H-indol-3-yl)-4-(4-methoxy-1-methyl-1H-indol-3-yl)-pyrrole-2,5-dione]	70 nM
COc1ccc2c(C3=C(c4cn(C)c5cc(NC(C)=O)ccc45)C(=O)NC3=O)cn(C)c2c1 [H H CH3 CONH CH3 O, N-{3-[4-(6-Methoxy-1-methyl-1H-indol-3-yl)-2,5-dioxo-2,5-dihydro-1H-pyrrol-3-yl]-1-methyl-1H-indol-6-yl}-acetamide]	70 nM
Cn1cc(C2=C(c3cn(C)c4cc([N+](=O)[O-])ccc34)C(=O)NC2=O)c2ccc(NC(=O)C(F)(F)F)cc21 [H H CF3 CONH NO2, N-{1-methyl-3-[4-(1-methyl-6-nitro-1H-indol-3-yl)-2,5-dioxo-2,5-dihydro-1H-pyrrol-3-yl]-1H-indol-3-yl}-trifluoroacetamide]	12 nM
COc1ccc2c(C3=C(c4cn(C)c5cc(OC)ccc45)C(=O)NC3=O)cn(C)c2c1 [H H OCH3 OCH3, 3,4-Bis-(6-methoxy-1-methyl-1H-indol-3-yl)-pyrrole-2,5-dione]	5 nM
CSc1ccc2c(C3=C(c4cn(C)c5cc([N+](=O)[O-])ccc45)C(=O)NC3=O)cn(C)c2c1 [H H NO2 SCH3, 3-(1-Methyl-6-methylsulfanyl-1H-indol-3-yl)-4-(1-methyl-6-nitro-1H-indol-3-yl)-pyrrole-2,5-dione]	9 nM
COc1ccc2c(c1)c(C1=C(c3cn(C)c4cc(OC)ccc34)C(=O)NC1=O)cn2C [H CH3 O H CH3 O]	70 nM
COc1ccc2c(c1)c(C1=C(c3cn(C)c4cc(SC)ccc34)C(=O)NC1=O)cn2C [H CH3 O H CH3 S, 3-(5-Methoxy-1-methyl-11H-indol-3-yl)-4-(1-methyl-6-methylsulfanyl-1H-indol-3-yl)-pyrrole-2,5-dione]	200 nM
CCOc1ccc2c(C3=C(c4cn(C)c5cc(N)ccc45)C(=O)NC3=O)cn(C)c2c1 [H H NH2 EtO]	12 nM
Cn1cc(C2=C(c3cn(C)c4cc([N+](=O)[O-])ccc34)C(=O)NC2=O)c2ccc(Br)cc21 [H H Br NO2, 3-(6-Bromo-1-methyl-1H-indol-3-yl)-4-(1-methyl-6-nitro-1H-indol-3-yl)-pyrrole-2,5-dione]	70 nM
Cn1cc(C2=C(c3cn(C)c4cc([N+](=O)[O-])ccc34)C(=O)NC2=O)c2ccc(F)cc21 [H H NO2 F, 3-(6-fluoro-1-methyl-1H-indol-3-yl)-4-(1-methyl-6-nitro-1H-indol-3-yl)-pyrrole-2,5-dione]	70 nM

The next lines start with the values.

IC50	SMILES
700 nM	Cn1cc(C2=C(c3cn(C)c4cc(N)ccc34)C(=O)NC2=O)c2ccc(N)cc21 [H H NH2 NH2, 3,4-bis-(1-methyl-6-amino-1H-indol-3-yl)-pyrrole-2,5-dione]
400 nM	Cc1ccc2c(C3=C(c4cn(C)c5ccc(C#N)cc45)C(=O)NC3=O)cn(C)c2c1 [H CN H CH3, 3-[4-(1,6-Dimethyl-1H-indol-3-yl]-2,5-dioxo-2,5-dihydro-1H-pyrrol-3-yl]1-methyl-1H-indole-5-carbonitrile]
5 nM	COc1ccc2c(C3=C(c4cn(C)c5cc(C#N)ccc45)C(=O)NC3=O)cn(C)c2c1 [H H CN OCH3, 3-[4-(6-methoxy-1-methyl-1H-indol-3-yl)-2,5-dioxo-2,5-dihydro-1H-pyrrole-3-yl]-1-methyl-indol-6-carbonitrile]
1000 nM	Cn1cc(C2=C(c3cn(C)c4cc([N+](=O)[O-])ccc34)C(=O)NC2=O)c2cc(C#N)ccc21 [H CN H NO2, 1-Methyl-3-[4-(1-methyl-6-nitro-1H-indol-3-yl)-2,5-dioxo-2,5-dihydro-1H-pyrrol-3-yl]-1H-indole-5-carbonitrile]
42 nM	Cn1cc(C2=C(c3cn(C)c4cc(F)ccc34)C(=O)NC2=O)c2ccc(N)cc21 [H H NH2 F, 3-(6-Amino-1-methyl-1H-indol-3-yl)-4-(6-fluoro-1-methyl-1H-indol-3-yl)-pyrrole-2,5-dione]
10 nM	Cc1ccc2c(C3=C(c4cn(C)c5cc(C#N)ccc45)C(=O)NC3=O)cn(C)c2c1 [H H CH3 CN, 3-[4-(1,6-dimethyl-1H-indol-3-yl)-2,5-dioxo-2,5-dihydro-1H-pyrrole-3-yl]-1-methyl-1H-indole-6-carbonitrile]
130 nM	Cc1ccc2c(c1)c(C1=C(c3cn(C)c4cc([N+](=O)[O-])ccc34)C(=O)NC1=O)cn2C [H CH3 H NO2, 3-(1,5-Dimethyl-1H-indol-3-yl)-4-(1-methyl-6-nitro-1H-indol-3-yl)-pyrrole-2,5-dione]
